# Key:
# [1] = biological target: Muscarinic acetylcholine receptor; test: Inhibitory concentration required for in vitro binding affinity to cholinergic central muscarinic receptor on rat brain cortex by using [3H]OXO-M
# [2] = Inhibitory concentration required for in vitro binding affinity to Nicotinic acetylcholine receptor alpha4-beta2 expressed on cell line sf 21 by using [3H]-MCC
# [3] = biological target: T1, Neuronal acetylcholine receptor; alpha3/beta2 (Homo sapiens, UniProt P17787+P32297); test: Inhibitory concentration required for in vitro binding affinity to Nicotinic acetylcholine receptor alpha3-beta2 expressed on cell line sf 9 by using [3H]-MCC; set-up: species or system Rattus norvegicus
# T1 sequence (P17787 whole entry): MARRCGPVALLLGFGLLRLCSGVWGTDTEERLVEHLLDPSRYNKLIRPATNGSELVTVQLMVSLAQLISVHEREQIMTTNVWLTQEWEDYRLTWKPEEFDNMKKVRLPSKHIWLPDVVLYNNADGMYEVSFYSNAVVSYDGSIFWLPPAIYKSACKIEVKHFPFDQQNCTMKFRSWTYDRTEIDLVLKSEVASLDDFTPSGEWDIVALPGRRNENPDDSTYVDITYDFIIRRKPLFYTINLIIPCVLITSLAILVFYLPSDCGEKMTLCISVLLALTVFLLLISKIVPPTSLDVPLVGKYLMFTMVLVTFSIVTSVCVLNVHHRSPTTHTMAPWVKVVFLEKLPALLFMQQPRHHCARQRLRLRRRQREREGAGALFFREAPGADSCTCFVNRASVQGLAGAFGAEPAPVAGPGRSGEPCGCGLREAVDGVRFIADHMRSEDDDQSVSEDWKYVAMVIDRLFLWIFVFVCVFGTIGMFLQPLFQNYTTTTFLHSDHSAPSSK
# T1 sequence (P32297 whole entry): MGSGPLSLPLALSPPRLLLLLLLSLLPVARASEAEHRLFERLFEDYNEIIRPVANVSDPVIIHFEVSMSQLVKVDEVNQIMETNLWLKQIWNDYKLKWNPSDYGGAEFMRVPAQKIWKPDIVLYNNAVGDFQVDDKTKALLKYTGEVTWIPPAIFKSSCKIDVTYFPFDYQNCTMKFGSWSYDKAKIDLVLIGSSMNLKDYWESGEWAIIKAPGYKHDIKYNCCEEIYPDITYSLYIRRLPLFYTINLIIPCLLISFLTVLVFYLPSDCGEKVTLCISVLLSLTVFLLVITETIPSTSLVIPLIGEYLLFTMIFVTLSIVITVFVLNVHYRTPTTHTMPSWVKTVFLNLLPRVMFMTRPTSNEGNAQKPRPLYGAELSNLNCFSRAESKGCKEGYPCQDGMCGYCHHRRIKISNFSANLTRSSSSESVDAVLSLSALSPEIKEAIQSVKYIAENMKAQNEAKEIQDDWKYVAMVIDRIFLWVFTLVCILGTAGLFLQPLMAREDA
# [4] = biological target: Neuronal acetylcholine receptor; test: Inhibitory concentration required for in vitro binding affinity to cholinergic central Nicotinic acetylcholine receptor on rat brain cortex by using [3H]MCC
# [5] = species on record: Rattus norvegicus; test: The compound was tested for inducing [3H]dopamine release from striatal slices at 1 uM nicotine; type: functional
# [6] = species on record: Rattus norvegicus; test: The compound was tested for inducing [3H]dopamine release from striatal slices at 10 uM nicotine; type: functional
# [7] = system: Rattus norvegicus; test: Compound was tested in vivo against effective nicotinic agonistic activity in rat; type: functional
# [8] = species on record: Xenopus sp.; test: Compound was tested for inducing stimulation of current response in Xenopus oocytes (alpha3-beta2) at 30 uM; type: functional, frog
# [9] = system: Rattus norvegicus; test: Compound was tested in vivo against effective nicotinic agonistic activity in rat when administered s.c.; type: functional; details: sc
# [10] = system: Mus musculus; test: Compound was tested in vivo for exploratory locomotor activity in mice after peroral administration; type: functional; details: po
# [11] = Inhibitory concentration required for in vitro binding affinity to Nicotinic acetylcholine receptor alpha4-beta2 expressed on cell line Sf 21 by using [3H]MCC
# [12] = species on record: Rattus norvegicus; test: Compound was tested for inducing [3H]dopamine release from striatal slices at 1 uM nicotine; type: functional
# [13] = system: Mus musculus; test: Compound was tested in vivo for exploratory locomotor activity in mice after subcutaneous administration; type: functional; details: sc
# [14] = species on record: Xenopus sp.; test: Compound was tested for inducing stimulation of current response in Xenopus oocytes (alpha4-beta2) at 1 uM; type: functional, frog
# [15] = biological target: T1, Neuronal acetylcholine receptor; alpha3/beta2; test: Inhibitory concentration required for in vitro binding affinity to Nicotinic acetylcholine receptor alpha3-beta2 expressed on cell line Sf 9 by using [3H]MCC; set-up: species or system Rattus norvegicus
# [16] = species on record: Rattus norvegicus; test: Compound was tested for inducing [3H]-dopamine release from striatal slices at 10 uM nicotine; type: functional
# [17] = Inhibitory concentration required for in vitro binding affinity to Nicotinic acetylcholine receptor alpha4-beta2 expressed on cell line sf 21 by using [3H]MCC
# [18] = system: Rattus norvegicus; test: The compound was tested in vivo against effective nicotinic agonistic activity in rat; type: functional
# [19] = system: Rattus norvegicus; test: The compound was tested in vivo against effective nicotinic agonistic activity in rat when administered s.c.; type: functional; details: sc
smiles,measurement,setting,value
Cc1cc(C=C2CN3CCCC2C3)on1 (stereo not drawn),IC50,[1],1700 nM
same,IC50,[2],41 nM
same,IC50,[3],117 nM
same,IC50,[4],85 nM
Cc1cc(/C=C2/CN3CCC2C3)on1 (stereo not drawn),IC50,[1],2800 nM
same,Activity,[5],17%
same,Activity,[6],46%
same,IC50,[2],6.5 nM
same,IC50,[3],14 nM
same,Activity,[7],62%
same,Response,[8],38%
same,ED50,[9],0.2 mg/kg
same,IC50,[4],26 nM
Cc1cc(/C=C2\CN3CCC2C3)on1 (stereo not drawn),IC50,[1],1200 nM
same,ED50,[10],2 mg/kg
same,IC50,[11],11 nM
same,Activity,[12],38%
same,ED50,[13],4.1 mg/kg
same,Activity,[7],63%
same,Response,[14],171%
same,IC50,[15],15 nM
same,Response,[8],51%
same,ED50,[9],0.5 mg/kg
same,IC50,[4],23 nM
same,Activity,[16],80%
Cc1cc(/C=C2/CN3CCC2CC3)on1,IC50,[1],1500 nM
same,IC50,[17],288 nM
same,IC50,[3],854 nM
Cc1cc(/C=C2\CN3CCC2CC3)on1,IC50,[1],1000 nM
same,ED50,[10],2.4 mg/kg
same,Activity,[5],51%
same,Activity,[18],60%
same,Activity,[6],68%
same,IC50,[2],1.4 nM
same,IC50,[3],1.9 nM
same,ED50,[13],0.4 mg/kg
same,Response,[14],300%
same,Response,[8],135%
same,IC50,[4],3.4 nM
same,ED50,[19],0.1 mg/kg
Cc1cc(/C=C2\CN3CCCC2C3)on1 (stereo not drawn),IC50,[1],950 nM
same,IC50,[2],26 nM
same,IC50,[3],217 nM
same,IC50,[4],170 nM
Cc1cc([C@@H]2CCCN2C)on1 [ABT-418],ED50,[10],72 mg/kg
same,Activity,[5],5%
same,Activity,[6],66%
same,IC50,[2],37 nM
same,IC50,[3],62 nM
same,ED50,[13],10 mg/kg
same,Activity,[7],72%
same,Response,[14],24%
same,Response,[8],40%
same,ED50,[9],0.2 mg/kg
CN1CCC[C@H]1c1cccnc1 [NICOTINE],ED50,[10],> 9 mg/kg
same,Activity,[5],100%
same,Activity,[18],96%
same,Activity,[6],180%
same,IC50,[2],4.2 nM
same,ED50,[13],0.3 mg/kg
same,Response,[14],100%
same,Response,[8],100%
same,ED50,[19],0.04 mg/kg
